In publication PMC8284454, “In Vitro Profiling of Antitubercular Compounds by Rapid, Efficient, and Nondestructive Assays Using Autoluminescent Mycobacterium tuberculosis” (Antimicrobial Agents and Chemotherapy, 2021):
Converted amounts (≈) assume the structure as drawn. “Also recorded” adds a separate entry of the source. Like-named read-outs stand apart in the source and are kept apart here. Marks after values point to notes of the source that are not given here. *1 amine or outer side, *2 acyl side, *3 side chain or, on linkers, in order; H or OH if unused. Where a SMILES comes first, the peptide text is derived from it. Bridges are numbered along the chain shown (N, C = ends). [ ]: non-standard residue; d: D form. The star is where a group is joined. Phe(3R-OH) = O=C([C@@H](N[*:1])[C@H](O[*:3])c1ccccc1)[*:2]; NMeTrp(4-OMe) = CN[C@@H](Cc1c[nH]c2cccc(OC)c12)C(=O)O; NMeaIle = CC[C@@H](C)[C@H](NC)C(=O)O; NMe2Val = CC(C)[C@@H](C(=O)*)N(C)C; NMeT = CN[C@H](C(=O)O)[C@@H](C)O; NMeL = CN[C@@H](CC(C)C)C(=O)O; NMeV = CN[C@H](C(=O)O)C(C)C

Columns and labels:
[1] = system: J774-internalized M. tuberculosis (H37Rv); assay: intracellular activity by luminescence (EC90); assay type: cell-based, Mycobacterium tuberculosis; conditions: for EC90: RLU; for onset of growth inhibition of internalized M. tuberculosis: early = EC90 obtainable by day 3, late = EC90 obtainable by day 5 or later
[2] = system: macrophage-internalized M. tuberculosis; conditions: read-out: Literature reported EC90, cited from earlier work
[3] = system: M. tuberculosis H37Rv_LuxABCDE; assay: luminescence-based MIC assay (LMICA); conditions: for MIC (±SD) LMICA: 90% reduction of luminescence, 7 days, 7H12 medium, SD from three independent experiments
[4] = system: M. tuberculosis H37Rv_LuxABCDE; assay: luminescence-based MBC assay (LMBCA) / time-kill; assay type: cell-based, Mycobacterium tuberculosis; conditions: for MBC / MBC (±SD) via luminescence / MBC (±SD) by luminescence on day 14 / MBC (±SD) by luminescence on day 21: 99% reduction in RLU vs T0; for time and/or concentration dependence of bactericidal activity: time-kill curves up to day 21; for change of MBC values over time: over 21 days, luminescence time-kill
[5] = system: M. tuberculosis H37Rv_LuxABCDE; assay: microbe, parasite or virus in culture; assay type: cell-based, Mycobacterium tuberculosis; conditions: day 7, SD from three independent experiments; for MBC: Mycobacterium tuberculosis, read-out: MBC (±SD) via CFU
[6] = system: M. tuberculosis H37Rv_LuxABCDE; assay: microplate alamarBlue assay (MABA) MIC; conditions: 90% reduction of fluorescence, 7 days, 7H12 medium; SD from three independent experiments
[7] = system: M. tuberculosis H37Rv_LuxABCDE; assay: postantibiotic effect by luminescence (RLU); assay type: cell-based, Mycobacterium tuberculosis; conditions: 1.5 log10 RLU increase, 1:10,000-fold dilution; for PAE 1× MIC RLU: 3 h exposure at 1× MIC; for PAE 10× MIC RLU: 3 h exposure at 10× MIC; for PAE 100× MIC RLU: 3 h exposure at 100× MIC
[8] = system: M. tuberculosis H37Rv_LuxABCDE; assay type: cell-based, Mycobacterium tuberculosis; conditions: 1:10,000-fold dilution; for PAE 1× MIC CFU/ml: 3 h exposure at 1× MIC; for PAE 10× MIC CFU/ml: 3 h exposure at 10× MIC; for PAE 100× MIC CFU/ml: 3 h exposure at 100× MIC
[9] = system: J774 infected with M. tuberculosis strain Erdman; conditions: read-out: Literature reported EC90; cited from earlier work
[10] = Mycobacterium tuberculosis, H37RV, 72 h, EC90, day 3, J774 macrophages, read-out: Intracellular activity, EC90 (±SD) Day 3
[11] = Mycobacterium tuberculosis, H37RV, 120 h, EC90, day 5, J774 macrophages, read-out: Intracellular activity, EC90 (±SD) Day 5
[12] = Mycobacterium tuberculosis, H37RV, 168 h, EC90, day 7, J774 macrophages, read-out: Intracellular activity, EC90 (±SD) Day 7
[13] = Mycobacterium tuberculosis, 168 h, day 7, SD from three independent experiments, read-out: MBC (±SD) via luminescence
[14] = Mycobacterium tuberculosis, 336 h, day 14, read-out: MBC (±SD) by luminescence on day 14
[15] = Mycobacterium tuberculosis, 504 h, day 21, read-out: MBC (±SD) by luminescence on day 21
[16] = day 7, SD from three independent experiments
[17] = EC90, day 3, J774 macrophages, read-out: Intracellular activity, EC90 (±SD) Day 3
[18] = EC90, day 5, J774 macrophages, read-out: Intracellular activity, EC90 (±SD) Day 5
[19] = EC90, day 7, J774 macrophages, read-out: Intracellular activity, EC90 (±SD) Day 7

| Compound | EC90 [1, 10] [nM] | EC90 [1, 11] [nM] | EC90 [1, 12] [nM] | MIC (±SD) LMICA [3] | MBC [4, 13] [µM] | MBC [4, 14] [µM] | MBC [4, 15] [µM] | time and/or concentration dependence of bactericidal activity [4] | onset of growth inhibition of internalized M. tuberculosis [1] | MBC [5] [µM] | MIC (±SD) MABA [6] | MBC (±SD) via luminescence [4, 16] | change of MBC values over time [4] | other results |
| --- | --- | --- | --- | --- | --- | --- | --- | --- | --- | --- | --- | --- | --- | --- |
| NCC[C@H](O)C(=O)N[C@@H]1C[C@H](N)[C@@H](O[C@H]2O[C@H](CN)[C@@H](O)[C@H](O)[C@H]2O)[C@H](O)[C@H]1O[C@H]1O[C@H](CO)[C@@H](O)[C@H](N)[C@H]1O [Amikacin] | > 34000 | > 34000 | > 34000 |  |  |  |  |  |  |  |  |  |  | inhibition at 34 µM ([1]; Mycobacterium tuberculosis, H37RV, 72 h, day 3, 34 μM, read-out: percent inhibition at the highest tested concentration, intracellular activity Day 3): 4%; inhibition at 34 µM ([1]; Mycobacterium tuberculosis, H37RV, 120 h, day 5, 34 μM, read-out: percent inhibition at the highest tested concentration, intracellular activity Day 5): 34%; inhibition at 34 µM ([1]; Mycobacterium tuberculosis, H37RV, 168 h, day 7, 34 μM, read-out: percent inhibition at the highest tested concentration, intracellular activity Day 7): 49%; EC90 ([2]; EC90, high-content imaging on day 5): > 26000 nM |
| COc1nc2ccc(Br)cc2cc1[C@@H](c1ccccc1)[C@@](O)(CCN(C)C)c1cccc2ccccc12 [Bedaquiline] | 890 | 290 | 220 | 0.028 (0.01) μM | 0.13 (≈ 0.0722 µg/mL) | 0.11 (≈ 0.0611 µg/mL) | 0.12 (≈ 0.0667 µg/mL) | primarily concentration dependent | early growth inhibition | 0.16 (≈ 0.0889 µg/mL) | 0.021 (0.01) μM |  |  | Toxicity against infected J774, percent inhibition at the highest tested concentration (infected J774; day 7, 2 μM): 2 (7)* percent; EC90 ([2]; EC90): 100 nM |
| CC(C)/N=c1\cc2n(-c3ccc(Cl)cc3)c3ccccc3nc-2cc1Nc1ccc(Cl)cc1 [Clofazimine] | 19000 | 6690 | 3700 |  | 1.81 (≈ 0.857 µg/mL) | 0.82 (≈ 0.388 µg/mL) | 1.01 (≈ 0.478 µg/mL) | both time and concentration dependent | early growth inhibition | > 4 | 0.014 (0.02) μM | 1.8 (0.19) μM | decreased | Toxicity against infected J774, percent inhibition at the highest tested concentration (infected J774; day 7, 50 μM): 50 (45)* percent; EC90 ([2]; EC90): ~2100 nM |
| CC[C@@H](C)[C@@H](C(=O)N[C@@H]1C(=O)N(C)[C@@H]([C@@H](C)O)C(=O)N[C@@H](C(C)C)C(=O)N(C)[C@@H](CC(C)C)C(=O)N[C@@H](C(C)C)C(=O)N(C)[C@@H](C(C)C)C(=O)N(C)[C@@H](Cc2c[nH]c3cccc(OC)c23)C(=O)N[C@@H](C(C)C)C(=O)N[C@@H]([C@H](O)c2ccccc2)C(=O)N[C@@H](C(C)C)C(=O)O[C@@H]1C)N(C)C(=O)[C@@H](NC(=O)[C@H](C(C)C)N(C)C)C(C)C [Ecumicin] (NMe2Val-V[NMeaIle]T[NMeT]V[NMeL]V[NMeV][NMeTrp(4-OMe)]V[Phe(3R-OH)]V; ester 3-C) |  |  |  | 0.074 (0.002) μM |  |  |  | mainly time dependent | early growth inhibition |  | 0.081 (0.02) μM | 0.22 (0.1) μM | decreased | PAE 1× MIC RLU [7]: 0 h; PAE 10× MIC RLU [7]: 12 h; PAE 100× MIC RLU [7]: 96 h; PAE 1× MIC CFU/ml [8]: 0 h; PAE 10× MIC CFU/ml [8]: 10 h; PAE 100× MIC CFU/ml [8]: 80 h; bactericidal or bacteriostatic activity [4]: strong bactericidal activity; also recorded: classical bactericidal dose response; MBC (±SD) by luminescence on day 14 ([4]; day 14): 0.20 (0.09) µM; MBC (±SD) by luminescence on day 21 ([4]; day 21): 0.12 (0.04) µM; EC90 [9]: ~120 nM; EC90 [1, 17]: 740 nM; EC90 [1, 18]: 570 nM; EC90 [1, 19]: 280 nM; MBC (±SD) via CFU [5]: 0.10 (±0.03) μM; Toxicity against infected J774, percent inhibition at the highest tested concentration (infected J774; day 7, 6.3 μM): 6.3 (11)* percent |
| CC[C@@H](CO)NCCN[C@@H](CC)CO [Ethambutol] | > 50000 | 44000 | 23800 | 1.3 (0.38) μM | 9.18 (≈ 1.88 µg/mL) | 3.17 (≈ 0.648 µg/mL) | 3.28 (≈ 0.67 µg/mL) | mainly time dependent | late growth inhibition | 7.9 (≈ 1.61 µg/mL) | 2.0 (0.41) μM | 9.2 (2.7) μM | decreased | inhibition at 50 µM ([1]; Mycobacterium tuberculosis, H37RV, 72 h, day 3, 50 μM, read-out: percent inhibition at the highest tested concentration, intracellular activity Day 3): 68%; Toxicity against infected J774, percent inhibition at the highest tested concentration (infected J774; day 7, 50 μM): 50 (0)* percent; EC90 ([2]; EC90): 16700 nM |
| CC(=O)NC[C@H]1CN(c2ccc(N3CCOCC3)c(F)c2)C(=O)O1 [Linezolid] |  |  |  | 1.7 (0.23) μM | 9.6 (≈ 3.24 µg/mL) | 7 (≈ 2.36 µg/mL) | 6 (≈ 2.02 µg/mL) | mainly time dependent |  | > 29 | 1.7 (0.10) μM |  | decreased |  |
| COc1c(N2C[C@@H]3CCCN[C@@H]3C2)c(F)cc2c(=O)c(C(=O)O)cn(C3CC3)c12 [Moxifloxacin] |  |  |  | 0.13 (0.02) μM | 0.91 (≈ 0.365 µg/mL) | 0.42 (≈ 0.169 µg/mL) | 0.46 (≈ 0.185 µg/mL) | both time and concentration dependent |  | 0.753 (≈ 0.302 µg/mL) | 0.24 (0.04) μM |  | decreased |  |
| O=[N+]([O-])c1cn2c(n1)OC[C@@H](OCc1ccc(OC(F)(F)F)cc1)C2 [Pretomanid] |  |  |  | 0.46 (0.01) μM | 0.63 (≈ 0.226 µg/mL) | 12.5 (≈ 4.49 µg/mL) | 13 (≈ 4.67 µg/mL) | both time and concentration dependent |  | 0.5 (≈ 0.18 µg/mL) | 0.49 (0.02) μM |  | increase |  |
| C/C=C/C[C@@H]1NC(=O)[C@H](CC(C)C)N2C(=O)[C@H](C[C@H](C)C2O)N(C)C(=O)[C@H](C)NC(=O)[C@H](Cc2ccc(O)c([N+](=O)[O-])c2)NC(=O)[C@H](CC(C)C)N(C)C(=O)[C@H](Cc2cn(C(C)(C)C3CO3)c3ccccc23)NC1=O (some centres unmarked) [Rufomycin] |  |  |  | 0.010 (0.001) μM |  |  |  | mainly time dependent |  |  | 0.032 (0.012) μM | >1^c μM | decreased | PAE 1× MIC RLU [7]: 0 h; PAE 10× MIC RLU [7]: 40 h; PAE 100× MIC RLU [7]: 96 h; PAE 1× MIC CFU/ml [8]: 0 h; PAE 10× MIC CFU/ml [8]: 48 h; PAE 100× MIC CFU/ml [8]: 110 h; MIC lower than ecumicin ([3]; ratio of MICs of Table 1): 7 fold; bactericidal or bacteriostatic activity [4]: bacteriostatic; MBC ([4]; day 7, SD from three independent experiments, read-out: MBC (±SD) via luminescence): > 1 µM; MBC ([4]; day 14, read-out: MBC (±SD) by luminescence on day 14): > 1 µM; EC90 [9]: ~100 nM; EC90 [1, 17]: > 10000 nM; EC90 [1, 18]: 3060 nM; EC90 [1, 19]: 1520 nM; percent inhibition at the highest tested concentration, intracellular activity Day 3 ([1]; day 3, 10 μM): 69%; MBC (±SD) via CFU [5]: >1^b μM; Toxicity against infected J774, percent inhibition at the highest tested concentration (infected J774; day 7, 10 μM): 10 (8)* percent |
| [H]/N=C(/N)N[C@H]1[C@H](O)[C@@H](O)[C@H](O[C@@H]2O[C@@H](C)[C@](O)(C=O)[C@H]2O[C@@H]2O[C@@H](CO)[C@H](O)[C@@H](O)[C@@H]2NC)[C@@H](N/C(N)=N\[H])[C@@H]1O [Streptomycin] |  |  |  | 0.12 (0.04) μM | 0.3 (≈ 0.174 µg/mL) | 0.5 (≈ 0.291 µg/mL) | 0.9 (≈ 0.523 µg/mL) | both time and concentration dependent |  | 0.37 (≈ 0.215 µg/mL) | 0.12 (0.02) μM |  |  |  |
| Capreomycin |  |  |  | 0.53 (0.07) μM |  |  |  |  |  |  | 0.70 (0.03) μM | 1.3 (0.4) μM | increase | MBC (±SD) by luminescence on day 14 ([4]; day 14): 6.94 (3.8) µM; MBC (±SD) by luminescence on day 21 ([4]; day 21): 13.65 (2.34) µM; MBC (±SD) via CFU [5]: 1.7 (0.9) μM |
